The target of assay [1] is T1, baculovirus-expressed ALK (Homo sapiens, UniProt Q9UM73).
T1 construct: host or cells: baculovirus expression system
Nature of the assay: ALK Kinase Assay (ELISA-type, time-resolved fluorescence). Format: biochemical. To be noted: 1 μM ATP (Km level), 30 ng/ml ALK, 37° C., 15 minutes; read-out: ALK Activity (ALK kinase inhibition, IC50 class). A digest of the protocol: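 Substrate coating: phospholipase C-γ, 10 μg/mL in TBS. Kinase step: 30 ng/ml ALK, 15 min, 37° C. Detection and analysis: Eu-N1 PT66 antibody, with IC50 fitted as a sigmoidal variable-slope dose-response curve.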
On the technique in general: An ELISA detects its analyte on a solid surface through an enzyme-linked reagent.

In assay [2] the target is T2, c-Met (cytoplasmic domain) (Homo sapiens, UniProt P08581).
T2 construct: 10 ng/mL c-Met (cytoplasmic domain, Invitrogen Corporation #PV3143); purchased Invitrogen Corporation PV3143
T2 sequence (P08581 956-1390 limits assumed): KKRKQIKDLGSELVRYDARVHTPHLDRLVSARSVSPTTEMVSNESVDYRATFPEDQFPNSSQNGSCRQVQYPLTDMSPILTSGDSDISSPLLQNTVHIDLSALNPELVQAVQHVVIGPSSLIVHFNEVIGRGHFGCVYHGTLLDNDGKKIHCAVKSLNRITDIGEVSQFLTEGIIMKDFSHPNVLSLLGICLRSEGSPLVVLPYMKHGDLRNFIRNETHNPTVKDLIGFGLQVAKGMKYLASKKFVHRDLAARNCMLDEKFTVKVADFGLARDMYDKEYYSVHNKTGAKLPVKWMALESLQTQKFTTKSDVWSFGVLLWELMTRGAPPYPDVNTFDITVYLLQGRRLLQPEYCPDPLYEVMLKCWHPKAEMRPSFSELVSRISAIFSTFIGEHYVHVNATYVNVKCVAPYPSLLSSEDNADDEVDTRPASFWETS
Nature of the assay: c-Met Kinase Assay (same methods as for ALK, with modifications). The class given is biochemical. The settings on record: 1 μM ATP (Km level), 10 ng/mL c-Met; read-out: cMet Activity (c-Met kinase inhibition, IC50 class). A digest of the protocol: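 Wells were coated with 10 μg/mL phospholipase C-γ substrate in TBS, and reactions were started with 10 ng/mL c-Met cytoplasmic domain and run at 37° C for 15 minutes. Phosphorylated product was detected with Eu-N1-labeled PT66 antibody. IC50 values came from sigmoidal variable-slope fits of percent inhibition versus log compound concentration.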

The structures appear in SMILES notation.

By IC50 is commonly meant the concentration that inhibits the measured activity by half.

T1 sequence (Q9UM73 19-1620): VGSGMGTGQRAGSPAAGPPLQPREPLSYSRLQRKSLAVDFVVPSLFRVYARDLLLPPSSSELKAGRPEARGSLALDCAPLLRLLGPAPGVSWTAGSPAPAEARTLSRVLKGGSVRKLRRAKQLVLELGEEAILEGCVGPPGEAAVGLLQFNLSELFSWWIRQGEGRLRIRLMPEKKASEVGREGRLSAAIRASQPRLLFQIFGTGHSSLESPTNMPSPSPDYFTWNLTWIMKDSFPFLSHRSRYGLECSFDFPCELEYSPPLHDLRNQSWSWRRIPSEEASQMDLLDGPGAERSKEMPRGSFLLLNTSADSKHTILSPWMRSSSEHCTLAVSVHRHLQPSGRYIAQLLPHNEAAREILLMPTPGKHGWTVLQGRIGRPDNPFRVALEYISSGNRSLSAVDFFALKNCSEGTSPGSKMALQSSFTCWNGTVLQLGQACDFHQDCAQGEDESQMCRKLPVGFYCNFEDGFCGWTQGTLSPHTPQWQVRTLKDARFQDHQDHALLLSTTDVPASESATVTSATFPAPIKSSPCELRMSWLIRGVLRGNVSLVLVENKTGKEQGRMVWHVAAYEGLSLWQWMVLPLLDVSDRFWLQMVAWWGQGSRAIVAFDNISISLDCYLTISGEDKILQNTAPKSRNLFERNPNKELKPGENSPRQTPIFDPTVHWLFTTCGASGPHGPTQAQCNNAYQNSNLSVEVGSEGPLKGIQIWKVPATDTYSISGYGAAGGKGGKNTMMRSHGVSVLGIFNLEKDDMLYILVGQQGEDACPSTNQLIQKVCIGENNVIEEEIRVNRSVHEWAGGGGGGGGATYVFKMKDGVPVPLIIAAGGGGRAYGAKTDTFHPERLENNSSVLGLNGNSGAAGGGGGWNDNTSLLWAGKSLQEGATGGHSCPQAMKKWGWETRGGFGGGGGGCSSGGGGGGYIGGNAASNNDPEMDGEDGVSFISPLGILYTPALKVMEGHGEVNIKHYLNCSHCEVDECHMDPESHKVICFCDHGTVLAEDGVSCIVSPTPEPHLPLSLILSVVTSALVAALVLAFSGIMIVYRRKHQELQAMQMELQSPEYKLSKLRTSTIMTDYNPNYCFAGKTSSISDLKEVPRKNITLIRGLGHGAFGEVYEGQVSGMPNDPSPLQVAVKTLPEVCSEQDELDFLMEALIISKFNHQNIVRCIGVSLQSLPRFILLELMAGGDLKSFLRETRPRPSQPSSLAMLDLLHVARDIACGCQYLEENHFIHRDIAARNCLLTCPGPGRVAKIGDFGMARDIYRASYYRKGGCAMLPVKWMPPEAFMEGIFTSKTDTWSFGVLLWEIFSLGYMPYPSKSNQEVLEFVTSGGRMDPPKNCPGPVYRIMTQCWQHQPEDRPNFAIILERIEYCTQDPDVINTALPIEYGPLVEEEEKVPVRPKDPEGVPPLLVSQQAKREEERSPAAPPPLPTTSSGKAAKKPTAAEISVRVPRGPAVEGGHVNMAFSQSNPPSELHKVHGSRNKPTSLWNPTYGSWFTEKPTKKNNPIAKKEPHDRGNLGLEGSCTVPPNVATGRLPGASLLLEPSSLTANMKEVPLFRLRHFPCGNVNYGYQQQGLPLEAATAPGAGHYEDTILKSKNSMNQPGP

Turning to `CCN1C(=O)CCC(C)(C)c2ccc(Nc3ncc(Cl)c(Nc4c(F)cccc4N(C)CCC#N)n3)cc21` [Example 1264, 3-({2-[5-Chloro-2-(1-ethyl-5,5-dimethyl-2-oxo-2,3,4,5-tetrahydro-1H-1-benzazepin-8-ylamino)-pyrimidin-4-ylamino]-3-fluoro-phenyl}-methyl-amino)-propionitrile], the IC50 was 0.1 to 1 µM in assay [1] and 1 to 10 µM in assay [2].

Consider `CN(CCC#N)c1cccc(F)c1Nc1nc(Nc2ccc3c(c2)C(C)(C)CCC(=O)N3)ncc1Cl` [Example 1266, 3-({2-[5-Chloro-2-(5,5-dimethyl-2-oxo-2,3,4,5-tetrahydro-1H-1-benzazepin-7-ylamino)-pyrimidin-4-ylamino]-3-fluoro-phenyl}-methyl-amino)-propionitrile], for which the half-inhibitory concentration (IC50) in assay [1] was below 0.1 µM; in assay [2], 1 to 10 µM.

Consider `CN(CCC#N)c1cccc(F)c1Nc1nc(Nc2ccc3c(c2)C(C)(C)CCC(=O)N3)ncc1Cl` [Example 1267, 3-({2-[5-Chloro-2-(5,5-dimethyl-2-oxo-2,3,4,5-tetrahydro-1H-1-benzazepin-7-ylamino)-pyrimidin-4-ylamino]-3-fluoro-phenyl}-methyl-amino)-propionitrile], for which the IC50 is 0.1 to 1 µM in assay [1] and 1 to 10 µM in assay [2].

Turning to `CNC(=O)c1cccc(F)c1Nc1nc(Nc2ccc3c(c2)-n2cccc2C(=O)CO3)ncc1Cl` [Example 1268, 2-[5-Chloro-2-(4-oxo-4,5-dihydro-6-oxa-10b-aza-benz[e]azulen-9-ylamino)-pyrimidin-4-ylamino]-3-fluoro-N-methyl-benzamide], the results for the concentration for half-maximal inhibition (IC50) in assay [1] and in assay [2] were 0.1 to 1 µM and below 0.1 µM, respectively.

Turning to `CNC(=O)c1cccc(F)c1Nc1nc(Nc2ccc3c(c2)-n2cccc2C=CO3)ncc1Cl` [Example 1269, 2-[5-Chloro-2-(6-oxa-10b-aza-benz[e]azulen-9-ylamino)-pyrimidin-4-ylamino]-3-fluoro-N-methyl-benzamide], the half-inhibitory concentration (IC50) in assay [1] is 0.1 to 1 µM; in assay [2], below 0.1 µM.

On to `CNC(=O)c1cccc(F)c1Nc1nc(Nc2ccc3c(c2)-n2ccnc2CCC3(C)C)ncc1Cl` [Example 1270, 2-[5-Chloro-2-(6,6-dimethyl-5,6-dihydro-4H-3,10b-diaza-benz[e]azulen-9-ylamino)-pyrimidin-4-ylamino]-3-fluoro-N-methyl-benzamide], for which the concentration for half-maximal inhibition (IC50) in assay [1] is 0.1 to 1 µM; in assay [2] it was below 0.1 µM.

On to `O=C1CCCc2ccc(Nc3ncc(Cl)c(Nc4c(F)cccc4OC4CCOC4)n3)cc2N1` (stereo not shown) [Example 1273, 8-{5-Chloro-4-[2-fluoro-6-(tetrahydro-furan-3-yloxy)-phenylamino]-pyrimidin-2-ylamino}-1,3,4,5-tetrahydro-1-benzazepin-2-one], for which the IC50 in assay [1] and in assay [2] was 0.1 to 1 µM each time.

For `COCCN1CCc2ccc(Nc3ncc(Cl)c(Nc4c(F)cccc4OC4CCOC4)n3)cc2CC1` (stereo not shown) [Example 1274, 5-Chloro-N(4)-[2-fluoro-6-(tetrahydro-furan-3-yloxy)-phenyl]-N(2)-[3-(2-methoxy-ethyl)-2,3,4,5-tetrahydro-1H-3-benzazepin-7-yl]-pyrimidine-2,4-diamine], the 50% inhibitory concentration (IC50) in assay [1] and in assay [2] was 0.1 to 1 µM throughout.

On to `COCCN1CCc2ccc(Nc3ncc(Cl)c(Nc4c(F)cccc4OCC4CCOC4)n3)cc2CC1` (stereo not shown) [Example 1275, 5-Chloro-N(4)-[2-fluoro-6-(tetrahydro-furan-3-ylmethoxy)-phenyl]-N(2)-[3-(2-methoxy-ethyl)-2,3,4,5-tetrahydro-1H-3-benzazepin-7-yl]-pyrimidine-2,4-diamine], for which the half-maximal inhibitory concentration (IC50) in assay [1] and in assay [2] was 1 to 10 µM throughout.

Regarding `O=C1CCCc2ccc(Nc3ncc(Cl)c(Nc4c(F)cccc4OCC4CCOC4)n3)cc2N1` (stereo not shown) [Example 1276, 8-{5-Chloro-4-[2-fluoro-6-(tetrahydro-furan-3-ylmethoxy)-phenylamino]-pyrimidin-2-ylamino}-1,3,4,5-tetrahydro-1-benzazepin-2-one], the concentration for half-maximal inhibition (IC50) in assay [1] and in assay [2] was 0.1 to 1 µM in each case.

As to `CNC(=O)c1cc(F)cc(F)c1Nc1nc(Nc2ccc3c(c2)CCN(CCOC)CC3)ncc1Cl` [Example 1277, 2-{5-Chloro-2-[3-(2-methoxy-ethyl)-2,3,4,5-tetrahydro-1H-3-benzazepin-7-ylamino]-pyrimidin-4-ylamino}-3,5-difluoro-N-methyl-benzamide], the IC50 in assay [1] and in assay [2] was 0.1 to 1 µM throughout.

`CNC(=O)c1cc(F)cc(F)c1Nc1nc(Nc2ccc3c(c2)NC(=O)CCC3)ncc1Cl` [Example 1278, 2-[5-Chloro-2-(2-oxo-2,3,4,5-tetrahydro-1H-1-benzazepin-8-ylamino)-pyrimidin-4-ylamino]-3,5-difluoro-N-methyl-benzamide]: the IC50 in assay [1] and in assay [2] was below 0.1 µM throughout.

`C#CCNC(=O)c1cccc(F)c1Nc1nc(Nc2ccc3c(c2)NC(=O)C(NC(=O)C(F)(F)F)CC3(C)C)ncc1Cl` (stereo not shown) [Example 1279, 2-{5-Chloro-2-[5,5-dimethyl-2-oxo-3-(2,2,2-trifluoro-acetylamino)-2,3,4,5-tetrahydro-1H-1-benzazepin-8-ylamino]-pyrimidin-4-ylamino}-3-fluoro-N-prop-2-ynyl-benzamide]: the figures for the half-inhibitory concentration (IC50) in assay [1] and in assay [2] were 0.1 to 1 µM and below 0.1 µM, respectively.

Turning to `C#CCNC(=O)c1cccc(F)c1Nc1nc(Nc2ccc3c(c2)NC(=O)C(N)CC3(C)C)ncc1Cl` (stereo not shown) [Example 1280, 2-[2-(3-Amino-5,5-dimethyl-2-oxo-2,3,4,5-tetrahydro-1H-1-benzazepin-8-ylamino)-5-chloro-pyrimidin-4-ylamino]-3-fluoro-N-prop-2-ynyl-benzamide], the IC50 in assay [1] and in assay [2] was below 0.1 µM in each case.

For the compound `O=C1CCCc2ccc(Nc3ncc(Cl)c(Nc4c(F)cccc4OC4CCOCC4)n3)cc2N1` [Example 1281, 8-{5-Chloro-4-[2-fluoro-6-(tetrahydro-pyran-4-yloxy)-phenylamino]-pyrimidin-2-ylamino}-1,3,4,5-tetrahydro-1-benzazepin-2-one], the concentration for half-maximal inhibition (IC50) was in the range of 0.1 to 1 µM in assay [1] and 1 to 10 µM in assay [2].

`COCCN1CCc2ccc(Nc3ncc(Cl)c(Nc4c(F)cccc4OC4CCOCC4)n3)cc2CC1` [Example 1282, 5-Chloro-N(4)-[2-fluoro-6-(tetrahydro-pyran-4-yloxy)-phenyl]-N(2)-[3-(2-methoxy-ethyl)-2,3,4,5-tetrahydro-1H-3-benzazepin-7-yl]-pyrimidine-2,4-diamine]: the concentration for half-maximal inhibition (IC50) in assay [1] is below 0.1 µM; in assay [2], 1 to 10 µM.

`O=C1CCCc2ccc(Nc3ncc(Cl)c(Nc4c(F)cccc4OCCCOCc4ccccc4)n3)cc2N1` [Example 1283, 8-{4-[2-(3-Benzyloxy-propoxy)-6-fluoro-phenylamino]-5-chloro-pyrimidin-2-ylamino}-1,3,4,5-tetrahydro-1-benzazepin-2-one]: the IC50 is 1 to 10 µM in assay [1] and above 10 µM in assay [2].

Regarding `COCCN1CCc2ccc(Nc3ncc(Cl)c(Nc4c(F)cccc4OCCCOCc4ccccc4)n3)cc2CC1` [Example 1284, N(4)-[2-(3-Benzyloxy-propoxy)-6-fluoro-phenyl]-5-chloro-N(2)-[3-(2-methoxy-ethyl)-2,3,4,5-tetrahydro-1H-3-benzazepin-7-yl]-pyrimidine-2,4-diamine], the figures for the IC50 in assay [1] and in assay [2] were 0.1 to 1 µM and 1 to 10 µM, respectively.

For `O=C1CCCc2ccc(Nc3ncc(Cl)c(Nc4c(F)cc(F)cc4N4CCOCC4)n3)cc2N1` [Example 1286, 8-[5-Chloro-4-(2,4-difluoro-6-morpholin-4-yl-phenylamino)-pyrimidin-2-ylamino]-1,3,4,5-tetrahydro-1-benzazepin-2-one], the half-maximal inhibitory concentration (IC50) in assay [1] and in assay [2] was 1 to 10 µM in each case.

Take `COCCN1CCc2ccc(Nc3ncc(Cl)c(Nc4c(F)cc(F)cc4N4CCOCC4)n3)cc2CC1` [Example 1287, 5-Chloro-N(4)-(2,4-difluoro-6-morpholin-4-yl-phenyl)-N(2)-[3-(2-methoxy-ethyl)-2,3,4,5-tetrahydro-1H-3-benzazepin-7-yl]-pyrimidine-2,4-diamine]: the values for the IC50 in assay [1] and in assay [2] were 0.1 to 1 µM and 1 to 10 µM, respectively.

Consider `CNC(=O)c1cccc(F)c1Nc1nc(Nc2ccc3c(c2)NC(=O)C(N2CCOCC2)CC3(C)C)ncc1Cl` (stereo not shown) [Example 1288, 2-[5-Chloro-2-(5,5-dimethyl-3-morpholin-4-yl-2-oxo-2,3,4,5-tetrahydro-1H-1-benzazepin-8-ylamino)-pyrimidin-4-ylamino]-3-fluoro-N-methyl-benzamide], for which the IC50 was 0.1 to 1 µM in assay [1] and below 0.1 µM in assay [2].

Consider `C#CCNC(=O)c1cccc(F)c1Nc1nc(Nc2ccc3c(c2)NC(=O)C(NC(C)=O)CC3(C)C)ncc1Cl` (stereo not shown) [Example 1290, 2-[2-(3-Acetylamino-5,5-dimethyl-2-oxo-2,3,4,5-tetrahydro-1H-1-benzazepin-8-ylamino)-5-chloro-pyrimidin-4-ylamino]-3-fluoro-N-prop-2-ynyl-benzamide], for which the IC50 in assay [1] was 1 to 10 µM; in assay [2], below 0.1 µM.

Consider `CNC(=O)c1sccc1Nc1nc(Nc2ccc3c(c2)NC(=O)C(NC(C)=O)CC3(C)C)ncc1Cl` (stereo not shown) [Example 1291, 3-[2-(3-Acetylamino-5,5-dimethyl-2-oxo-2,3,4,5-tetrahydro-1H-1-benzazepin-8-ylamino)-5-chloro-pyrimidin-4-ylamino]-thiophene-2-carboxylic acid methylamide], for which the figures for the half-maximal inhibitory concentration (IC50) in assay [1] and in assay [2] were 1 to 10 µM and below 0.1 µM, respectively.

The values above are taken from patent US8148391B2 (Cephalon, Inc., priority 2006, dated 2012).
